This is an account of results in ChEMBL document CHEMBL1201862, “PubChem BioAssay data set” (2004).

Some test systems named below: SW-620; 786-0; SK-MEL-28; MDA-MB-435; CCRF-CEM; NCI-H522; A549; LOX IMVI; M14; Malme-3M; HCT-15; SR; K562; SNB-75; U-251; ACHN; MDA-N; SN12C; MOLT-4.
Common to all, as to test: inhibition of tumour cell growth, NCI panel, 48 h

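Where inhibition never reached the appropriate level, the endpoint shown equals the highest concentration tested. Otherwise, values were interpolated linearly from a five-concentration, 48-hour dose response in 96-well plates. GI50 is the concentration that inhibits growth by half.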 Activity calls are given as the source filed them. Rule as the data show it: active = GI50 up to about 1.1 µM and inactive = higher.

For `COc1ccc(C(=O)Sc2c(-c3ccccc3)c(=O)n(-c3ccccc3)c(=S)n2-c2ccccc2)cc1`, the GI50 was > 100 µM (inactive) in the assay on SW-620; 33.7 µM (inactive) in the assay with 786-0; 81.5 µM (inactive) with SK-MEL-28; > 100 µM (inactive) in the assay on MDA-MB-435; 22.3 µM (inactive) in the assay on CCRF-CEM; > 100 µM (inactive) in the assay with NCI-H522. The GI50 in the assay on A549 was 64.1 µM (inactive); in the assay with LOX IMVI, 74.5 µM (inactive); with M14, 68.7 µM (inactive); in the assay on Malme-3M it was 48.5 µM (inactive); with HCT-15 it was more than 100 µM; with SR, 25.4 µM (inactive). In addition, the GI50 in the assay with K562 is 37.1 µM (inactive); in the assay on SNB-75, > 100 µM (inactive); in the assay with U-251, 47 µM (inactive); with ACHN, 40.5 µM (inactive); with MDA-N, > 100 µM (inactive); with SN12C it was 41.7 µM (inactive). Moreover, in the assay with MOLT-4, the GI50 is 21.6 µM (inactive).

Consider `O=S1(=O)OCCOS(=O)(=O)C1(F)Cc1ccccc1`, for which the GI50 with SW-620, in the assay with 786-0, with SK-MEL-28, in the assay with MDA-MB-435, with CCRF-CEM and in the assay with NCI-H522 was > 100 µM (inactive) throughout. Besides, the GI50 was > 100 µM (inactive) with A549; > 100 µM (inactive) in the assay with LOX IMVI; > 100 µM (inactive) in the assay on M14; > 100 µM (inactive) in the assay with Malme-3M; more than 100 µM with HCT-15; > 100 µM (inactive) in the assay on SR. Moreover, the GI50 in the assay on K562, in the assay with SNB-75, with U-251, in the assay with ACHN, in the assay on MDA-N and in the assay on SN12C was > 100 µM (inactive) throughout. The GI50 in the assay with MOLT-4 was > 100 µM (inactive).

Regarding `Cc1ccc(C2=Nc3cc(C)c(Cl)cc3S(=O)(=O)NN2)cc1`, the GI50 is > 100 µM (inactive) in the assay on SW-620; 58.1 µM (inactive) with 786-0; > 100 µM (inactive) in the assay with SK-MEL-28; > 100 µM (inactive) in the assay on MDA-MB-435; 38.5 µM (inactive) in the assay with CCRF-CEM; > 100 µM (inactive) in the assay with NCI-H522. Also, the GI50 in the assay with A549 was 57.8 µM (inactive); with LOX IMVI, > 100 µM (inactive); in the assay on M14 it was > 100 µM (inactive); with Malme-3M, > 100 µM (inactive); with HCT-15, more than 100 µM; with SR it was 20 µM (inactive). Moreover, the GI50 in the assay on K562 is 36.3 µM (inactive); in the assay on SNB-75 it was > 100 µM (inactive); with U-251, > 100 µM (inactive); in the assay on ACHN, 65.5 µM (inactive); in the assay with MDA-N it was > 100 µM (inactive); with SN12C, > 100 µM (inactive). Further, the GI50 in the assay on MOLT-4 was 37.9 µM (inactive).

For `CCOC(=O)C(NCc1cccc(C(F)(F)F)c1)(NC(=O)CC)C(F)(F)F` (stereo not given), the GI50 in the assay on SW-620, with 786-0, in the assay with SK-MEL-28, with MDA-MB-435, in the assay on CCRF-CEM and in the assay with NCI-H522 was > 100 µM (inactive) each time. For the same compound, the GI50 in the assay with A549 is 44.2 µM (inactive); with LOX IMVI it was > 100 µM (inactive); in the assay on M14, > 100 µM (inactive); in the assay on Malme-3M, > 100 µM (inactive); in the assay on HCT-15 it was more than 100 µM; in the assay with SR it was > 100 µM (inactive). The GI50 was > 100 µM (inactive) in the assay on K562; 63.5 µM (inactive) with SNB-75; > 100 µM (inactive) in the assay on U-251; > 100 µM (inactive) in the assay with ACHN; > 100 µM (inactive) in the assay with MDA-N; > 100 µM (inactive) in the assay on SN12C. Moreover, the GI50 in the assay on MOLT-4 is 82.6 µM (inactive).

Turning to `CCC1(CC)C(=O)CC[C@@]2(C)C1=CC[C@H]1[C@@H]3CC[C@H](O)[C@@]3(C)CC[C@@H]12`, the GI50 in the assay on SW-620 was 19.1 µM (inactive); in the assay with 786-0, 15.5 µM (inactive); in the assay with SK-MEL-28, > 100 µM (inactive); with MDA-MB-435 it was 61 µM (inactive); in the assay with CCRF-CEM, 19.6 µM (inactive); in the assay with NCI-H522, 19.8 µM (inactive). Further, the GI50 in the assay with A549 is 13.5 µM (inactive); in the assay on LOX IMVI it was 19.4 µM (inactive); with M14, 43.4 µM (inactive); in the assay with Malme-3M it was 36.1 µM (inactive); in the assay on HCT-15, 46.9 µM; in the assay with SR it was 15.4 µM (inactive). Moreover, the GI50 in the assay with K562 was 16.4 µM (inactive); in the assay with SNB-75, 35.6 µM (inactive); with U-251 it was 18.1 µM (inactive); in the assay on ACHN, 40.4 µM (inactive); with MDA-N it was 31.3 µM (inactive); in the assay on SN12C it was 16.7 µM (inactive). The GI50 with MOLT-4 is 25.6 µM (inactive).

As for `CCOC(=O)c1cc(Br)c(-c2onc(C)c2Br)n1C`, the GI50 in the assay with SW-620 is 49.7 µM (inactive); with 786-0 it was 25.9 µM (inactive); with SK-MEL-28, > 100 µM (inactive); with MDA-MB-435, 34.8 µM (inactive); in the assay on CCRF-CEM, 30.7 µM (inactive); in the assay with NCI-H522 it was 19.1 µM (inactive). The GI50 is 23.3 µM (inactive) in the assay on A549; 34 µM (inactive) in the assay with LOX IMVI; 40.6 µM (inactive) in the assay on M14; 52.8 µM (inactive) in the assay with Malme-3M; 37.6 µM in the assay with HCT-15; 20.5 µM (inactive) in the assay on SR. In addition, the GI50 with K562 is 30.5 µM (inactive); in the assay with SNB-75, 18.1 µM (inactive); in the assay on U-251 it was 43.1 µM (inactive); in the assay with ACHN it was 41.6 µM (inactive); with MDA-N it was 43 µM (inactive); with SN12C it was 23.1 µM (inactive). In addition, the GI50 in the assay with MOLT-4 was 15 µM (inactive).

For `COC(=O)c1c(C)c2c(c(C)c1C(=O)OC)-c1c(C)ccc3ccc(C)c-2c13`, the GI50 in the assay on SW-620 is 32.9 µM (inactive); in the assay on 786-0, 19.1 µM (inactive); with SK-MEL-28 it was 68.2 µM (inactive); in the assay on MDA-MB-435, > 83 µM (inactive); in the assay with CCRF-CEM, 11.4 µM (inactive); in the assay with NCI-H522 it was 31.2 µM (inactive). Further, the GI50 in the assay on A549 was 37.9 µM (inactive); in the assay on LOX IMVI, 12.1 µM (inactive); in the assay with M14 it was 21 µM (inactive); in the assay on Malme-3M, > 55.1 µM (inactive); in the assay on HCT-15, 13 µM; with SR, 6.78 µM (inactive). Moreover, the GI50 is 3.03 µM (inactive) with K562; 27.8 µM (inactive) in the assay on SNB-75; 58.9 µM (inactive) in the assay on U-251; > 100 µM (inactive) in the assay with ACHN; 61.5 µM (inactive) in the assay with MDA-N; > 93.8 µM (inactive) in the assay with SN12C. Moreover, the GI50 in the assay with MOLT-4 was 14.4 µM (inactive).

With `C=CCn1c(-c2ccc(Cl)cc2Cl)cs/c1=N\c1c(C)n(C)n(-c2ccccc2)c1=O`, the GI50 in the assay with SW-620 was 15.8 µM (inactive); in the assay with 786-0 it was 13.1 µM (inactive); with SK-MEL-28 it was 13 µM (inactive); with MDA-MB-435 it was 10.9 µM (inactive); in the assay with CCRF-CEM, 6.92 µM (inactive); with NCI-H522, 12.2 µM (inactive). In addition, the GI50 is 9.44 µM (inactive) with A549; 9.53 µM (inactive) in the assay with LOX IMVI; 11.3 µM (inactive) with M14; 15.9 µM (inactive) with Malme-3M; 13.7 µM in the assay with HCT-15; 5.36 µM (inactive) in the assay on SR. The GI50 in the assay on K562 is 2.51 µM (inactive); with SNB-75, 8.47 µM (inactive); in the assay with U-251, 12.5 µM (inactive); in the assay on ACHN, 10 µM (inactive); in the assay on MDA-N, 8.55 µM (inactive); in the assay on SN12C, 13.4 µM (inactive). For the same compound, the GI50 with MOLT-4 is 4.32 µM (inactive).

With `CCC(C)C(=O)OC1CC2(C)C(c3ccoc3)OC(=O)CC23OC2(C)OC34C(OC(=O)C(C)C)C3(O)C(OC(=O)C5(C)OC5C)C5(C)CC3(O)C(C)(C5CC(=O)OC)C14O2` (stereo not given), the GI50 was 50 µM (inactive) with SW-620; > 100 µM (inactive) in the assay with 786-0; > 100 µM (inactive) in the assay with SK-MEL-28; 83 µM (inactive) in the assay on MDA-MB-435; 28.6 µM (inactive) in the assay with CCRF-CEM; 37 µM (inactive) in the assay with NCI-H522. Also, the GI50 was 34.3 µM (inactive) in the assay with A549; 52.7 µM (inactive) with LOX IMVI; 42.9 µM (inactive) with M14; > 100 µM (inactive) with Malme-3M; 40.6 µM in the assay on HCT-15; 24.1 µM (inactive) in the assay on SR. The GI50 with K562 is 27.8 µM (inactive); in the assay on SNB-75, 15.5 µM (inactive); with U-251, 86.1 µM (inactive); in the assay on ACHN, 37 µM (inactive); in the assay with MDA-N, 47.1 µM (inactive); in the assay with SN12C it was > 100 µM (inactive). The GI50 in the assay on MOLT-4 was 20.7 µM (inactive).

For the compound `Cc1ccc2c(O)cc(-c3cccc4ccccc34)nc2n1`, the GI50 with SW-620 was 0.0203 µM (active); in the assay on 786-0, 0.0349 µM (active); with SK-MEL-28, 0.016 µM (active); in the assay with MDA-MB-435 it was < 0.01 µM (active); in the assay on CCRF-CEM, 0.0251 µM (active); with NCI-H522 it was < 0.0187 µM (active). Besides, the GI50 with A549 was 0.032 µM (active); in the assay on LOX IMVI, 0.0229 µM (active); in the assay with M14, 0.0247 µM (active); with Malme-3M, < 0.01 µM (active); in the assay with HCT-15, 0.0206 µM; in the assay on SR it was < 0.01 µM (active). The GI50 in the assay with K562 was < 0.01 µM (active); with SNB-75 it was 0.0116 µM (active); in the assay with U-251 it was 0.0166 µM (active); with ACHN, 0.102 µM (active); with MDA-N, < 0.01 µM (active); with SN12C it was 0.181 µM (active). Also, the GI50 in the assay with MOLT-4 is 0.0698 µM (active).
